The record followed here is patent publication US11168086B2, “Methods of synthesizing pyrazine compounds” (Hoffmann-La Roche Inc., priority 2015, dated 2021).

Structures are written as SMILES.

The experiment concerns HBV. As to the kind of experiment: HBV inhibition assay: anti-HBV activity in vitro in HepG2.2.15 cells (extracellular HBV DNA by qPCR). In kind it is cell-based. Conditions: Hepatitis B virus, 120 h, five days after compound treatment, extracellular HBV DNA in culture supernatant by qPCR, concentration at which HBV replication is inhibited by 50%. A digest of the protocol: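 HepG2.2.15 cells (stably carrying HBV genome) treated with half-log serially diluted compounds at 0.5% DMSO final for five days. Extracellular HBV DNA in supernatant quantified by qPCR after Proteinase K digestion; EC50 is concentration giving 50% inhibition of replication.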
Consider `C[C@H]1Cn2ncc(N3CC(c4cccnc4)CC3=O)c2CN1C(=O)Nc1cc(F)c(F)c(F)c1` (stereo partly drawn) [Example 351, (6S)-6-methyl-3-[2-oxo-4-(3-pyridyl)pyrrolidin-1-yl]-N-(3,4,5-trifluorophenyl)-6,7-dihydro-4H-pyrazolo[1,5-a]pyrazine-5-carboxamide], for which the EC50 stood at 12 nM.
In turn, `C[C@H]1Cn2ncc(N3CC(c4cocn4)CC3=O)c2CN1C(=O)Nc1cc(F)c(F)c(F)c1` (stereo partly drawn) [Example 352, (6S)-6-methyl-3-(4-oxazol-4-yl-2-oxo-pyrrolidin-1-yl)-N-(3,4,5-trifluorophenyl)-6,7-dihydro-4H-pyrazolo[1,5-a]pyrazine-5-carboxamide] showed an EC50 of 14 nM.
`C[C@H]1Cn2ncc(N3CC(c4ccccn4)CC3=O)c2CN1C(=O)Nc1cc(F)c(F)c(F)c1` (stereo partly drawn) [Example 353, (6S)-6-methyl-3-[2-oxo-4-(2-pyridyl)pyrrolidin-1-yl]-N-(3,4,5-trifluorophenyl)-6,7-dihydro-4H-pyrazolo[1,5-a]pyrazine-5-carboxamide] yielded an EC50 of 5 nM.
As to `C[C@H]1Cn2ncc(N3CC(c4ccncc4)CC3=O)c2CN1C(=O)Nc1cc(F)c(F)c(F)c1` (stereo partly drawn) [Example 354, (6S)-6-methyl-3-[2-oxo-4-(4-pyridyl)pyrrolidin-1-yl]-N-(3,4,5-trifluorophenyl)-6,7-dihydro-4H-pyrazolo[1,5-a]pyrazine-5-carboxamide], the EC50 amounted to 13 nM.
As for `C[C@H]1Cn2ncc(N3CCCC3=O)c2CN1C(=O)Nc1ccc(F)c(Cl)c1` [Example 355, (6S)—N-(3-chloro-4-fluoro-phenyl)-6-methyl-3-(2-oxopyrrolidin-1-yl)-6,7-dihydro-4H-pyrazolo[1,5-a]pyrazine-5-carboxamide], the figure is 36 nM.
In turn, `C[C@H]1Cn2ncc(N3CCCC3=O)c2CN1C(=O)Nc1cc(F)c(F)c(F)c1` [Example 356, (6S)-6-methyl-3-(2-oxopyrrolidin-1-yl)-N-(3,4,5-trifluorophenyl)-6,7-dihydro-4H-pyrazolo[1,5-a]pyrazine-5-carboxamide] had an EC50 of 50 nM.
As for `CC1CCC(=O)N(c2cnn3c2CN(C(=O)Nc2cc(F)c(F)c(F)c2)[C@@H](C)C3)C1` (stereo partly drawn) [Example 358, (6S)-6-methyl-3-(5-methyl-2-oxo-1-piperidyl)-N-(3,4,5-trifluorophenyl)-6,7-dihydro-4H-pyrazolo[1,5-a]pyrazine-5-carboxamide], the figure is 43 nM; as for `C[C@H]1Cn2ncc(N3CC(C#N)(CO)CC3=O)c2CN1C(=O)Nc1cc(F)c(F)c(F)c1` (stereo partly drawn) [Example 360, (6S)-3-[4-cyano-4-(hydroxymethyl)-2-oxo-pyrrolidin-1-yl]-6-methyl-N-(3,4,5-trifluorophenyl)-6,7-dihydro-4H-pyrazolo[1,5-a]pyrazine-5-carboxamide], 43 nM.
As to `C[C@H]1Cn2ncc(N3CC(C)(C#N)CC3=O)c2CN1C(=O)Nc1cc(F)c(F)c(C(F)F)c1` (stereo partly drawn) [Example 361, (6S)-3-(4-cyano-4-methyl-2-oxo-pyrrolidin-1-yl)-N-[3-(difluoromethyl)-4,5-difluoro-phenyl]-6-methyl-6,7-dihydro-4H-pyrazolo[1,5-a]pyrazine-5-carboxamide], the EC50 came out at 11 nM.
Compound `C[C@H]1Cn2ncc(N3CC(C)(CO)CC3=O)c2CN1C(=O)Nc1cc(F)c(F)c(F)c1` (stereo partly drawn) [Example 362, (6S)-3-[4-(hydroxymethyl)-4-methyl-2-oxo-pyrrolidin-1-yl]-6-methyl-N-(3,4,5-trifluorophenyl)-6,7-dihydro-4H-pyrazolo[1,5-a]pyrazine-5-carboxamide] displayed an EC50 of 32 nM.
As for `C[C@H]1Cn2ncc(N3CC(N(C)c4ncccn4)CC3=O)c2CN1C(=O)Nc1cc(F)c(F)c(F)c1` (stereo partly drawn) [Example 363, (6S)-6-methyl-3-[4-[methyl(pyrimidin-2-yl)amino]-2-oxo-pyrrolidin-1-yl]-N-(3,4,5-trifluorophenyl)-6,7-dihydro-4H-pyrazolo[1,5-a]pyrazine-5-carboxamide], the figure is 9 nM; as for `C[C@H]1Cn2ncc(N3CCOCC3=O)c2CN1C(=O)Nc1ccc(F)c(Cl)c1` [Example 364, (6S)—N-(3-chloro-4-fluoro-phenyl)-6-methyl-3-(3-oxomorpholin-4-yl)-6,7-dihydro-4H-pyrazolo[1,5-a]pyrazine-5-carboxamide], 28 nM.
As for `C[C@H]1Cn2ncc(N3CCNC3=O)c2CN1C(=O)Nc1cc(F)c(F)c(F)c1` [Example 368, (6S)-6-methyl-3-(2-oxoimidazolidin-1-yl)-N-(3,4,5-trifluorophenyl)-6,7-dihydro-4H-pyrazolo[1,5-a]pyrazine-5-carboxamide], the figure is 47 nM; as for `C[C@H]1Cn2ncc(N3CC(C)(C)OCC3=O)c2CN1C(=O)Nc1ccc(F)c(Cl)c1` [Example 371, (6S)—N-(3-chloro-4-fluoro-phenyl)-3-(2,2-dimethyl-5-oxo-morpholin-4-yl)-6-methyl-6,7-dihydro-4H-pyrazolo[1,5-a]pyrazine-5-carboxamide], 20 nM; as for `C[C@H]1Cn2ncc(N3C(=O)COC[C@@H]3C)c2CN1C(=O)Nc1cc(F)c(F)c(F)c1` [Example 372, (6S)-6-methyl-3-[(3S)-3-methyl-5-oxo-morpholin-4-yl]-N-(3,4,5-trifluorophenyl)-6,7-dihydro-4H-pyrazolo[1,5-a]pyrazine-5-carboxamide], 50 nM.
As for `C[C@H]1Cn2ncc(N3CCNC3=O)c2CN1C(=O)Nc1cc(F)c(F)c(C(F)F)c1` [Example 373, (6S)—N-[3-(difluoromethyl)-4,5-difluoro-phenyl]-6-methyl-3-(2-oxoimidazolidin-1-yl)-6,7-dihydro-4H-pyrazolo[1,5-a]pyrazine-5-carboxamide], the figure is 22 nM.
Turning to `C[C@H]1Cn2ncc(N3C[C@H](O)CC3=O)c2CN1C(=O)Nc1cc(F)c(F)c(F)c1` [Example 376, (6S)-3-[(4R)-4-hydroxy-2-oxo-pyrrolidin-1-yl]-6-methyl-N-(3,4,5-trifluorophenyl)-6,7-dihydro-4H-pyrazolo[1,5-a]pyrazine-5-carboxamide], the midpoint of the response, the EC50, lay at 88 nM.
For `C[C@H]1Cn2ncc(N3C[C@@H](O)CC3=O)c2CN1C(=O)Nc1cc(F)c(F)c(F)c1` [Example 377, (6S)-3-[(4S)-4-hydroxy-2-oxo-pyrrolidin-1-yl]-6-methyl-N-(3,4,5-trifluorophenyl)-6,7-dihydro-4H-pyrazolo[1,5-a]pyrazine-5-carboxamide], it took 81 nM to reach a half-maximal effect (EC50).
`CO[C@H]1CC(=O)N(c2cnn3c2CN(C(=O)Nc2cc(F)c(F)c(F)c2)[C@@H](C)C3)C1` [Example 378, (6S)-3-[(4S)-4-methoxy-2-oxo-pyrrolidin-1-yl]-6-methyl-N-(3,4,5-trifluorophenyl)-6,7-dihydro-4H-pyrazolo[1,5-a]pyrazine-5-carboxamide]: the EC50 is 28 nM.
The compound `CO[C@@H]1CC(=O)N(c2cnn3c2CN(C(=O)Nc2cc(F)c(F)c(F)c2)[C@@H](C)C3)C1` [Example 379, (6S)-3-[(4R)-4-methoxy-2-oxo-pyrrolidin-1-yl]-6-methyl-N-(3,4,5-trifluorophenyl)-6,7-dihydro-4H-pyrazolo[1,5-a]pyrazine-5-carboxamide] registered an EC50 of 38 nM.
As for `C[C@H]1Cn2ncc(N3C[C@@H](Oc4ncccn4)CC3=O)c2CN1C(=O)Nc1cc(F)c(F)c(F)c1` [Example 381, (6S)-6-methyl-3-[(4S)-2-oxo-4-pyrimidin-2-yloxy-pyrrolidin-1-yl]-N-(3,4,5-trifluorophenyl)-6,7-dihydro-4H-pyrazolo[1,5-a]pyrazine-5-carboxamide], the figure is 5 nM.
As for `C[C@H]1Cn2ncc(N3C[C@@H](Oc4ncc(F)cn4)CC3=O)c2CN1C(=O)Nc1cc(F)c(F)c(F)c1` [Example 382, (6S)-3-[(4S)-4-(5-fluoropyrimidin-2-yl)oxy-2-oxo-pyrrolidin-1-yl]-6-methyl-N-(3,4,5-trifluorophenyl)-6,7-dihydro-4H-pyrazolo[1,5-a]pyrazine-5-carboxamide], the figure is 16 nM.
As for `C[C@H]1Cn2ncc(N3CC(C(=O)N4CCOCC4)CC3=O)c2CN1C(=O)Nc1cc(F)c(F)c(F)c1` (stereo partly drawn) [Example 386, (6S)-6-methyl-3-[4-(morpholine-4-carbonyl)-2-oxo-pyrrolidin-1-yl]-N-(3,4,5-trifluorophenyl)-6,7-dihydro-4H-pyrazolo[1,5-a]pyrazine-5-carboxamide], the figure is 88 nM; as for `C[C@H]1Cn2ncc(N3CC(C(=O)N(C)C)CC3=O)c2CN1C(=O)Nc1cc(F)c(F)c(F)c1` (stereo partly drawn) [Example 390, (6S)-3-[4-(dimethylcarbamoyl)-2-oxo-pyrrolidin-1-yl]-6-methyl-N-(3,4,5-trifluorophenyl)-6,7-dihydro-4H-pyrazolo[1,5-a]pyrazine-5-carboxamide], 103 nM.
As for `C[C@H]1Cn2ncc(N3CC(C(=O)N4CCCC4)CC3=O)c2CN1C(=O)Nc1cc(F)c(F)c(F)c1` (stereo partly drawn) [Example 391, (6S)-6-methyl-3-[2-oxo-4-(pyrrolidine-1-carbonyl)pyrrolidin-1-yl]-N-(3,4,5-trifluorophenyl)-6,7-dihydro-4H-pyrazolo[1,5-a]pyrazine-5-carboxamide], the EC50 stood at 74 nM.
As for `C[C@H]1Cn2ncc(N3CC(C(=O)Nc4ncco4)CC3=O)c2CN1C(=O)Nc1cc(F)c(F)c(F)c1` (stereo partly drawn) [Example 392, (6S)-6-methyl-3-[4-(oxazol-2-ylcarbamoyl)-2-oxo-pyrrolidin-1-yl]-N-(3,4,5-trifluorophenyl)-6,7-dihydro-4H-pyrazolo[1,5-a]pyrazine-5-carboxamide], the figure is 88 nM.
As for `C[C@H]1Cn2ncc(N3CC(C(=O)N4CCOC(C)(C)C4)CC3=O)c2CN1C(=O)Nc1cc(F)c(F)c(F)c1` (stereo partly drawn) [Example 393, (6S)-3-[4-(2,2-dimethylmorpholine-4-carbonyl)-2-oxo-pyrrolidin-1-yl]-6-methyl-N-(3,4,5-trifluorophenyl)-6,7-dihydro-4H-pyrazolo[1,5-a]pyrazine-5-carboxamide], the figure is 70 nM.
